Among the data in patent EP0441226A1, “(cyanomethyl)pyridines useful as PAF antagonists” (J. URIACH & CIA. S.A., priority 1990, dated 1991) are ED50 values, retold here.

Structures can show the parent of a compound that is named as a salt.

The test system of the first assay is hypotension induced by PAF. The assay can be described thus: Inhibition of the hypotensive effect induced by PAF in normotense rats. In kind it is in vivo, Sprage Dawley rats. To be noted: Rattus norvegicus, iv, read-out: ID50.
Protocol: Male Sprage Dawley rats, of 180-220 g of weight, anesthetized with sodium pentobarbital (50 mg/Kg, i.p. 1 mU100 g) have been used. In order to measure the average arterial pressure, a polyethylene catheter is introduced into the carotid artery. The arterial pressure is recorded with the help of a transducer connected with a R611 Beckman polygraph. The tested compounds are administered through the femoral vein 3 min. before the injection of PAF (0.5 mcg/Kg, i.v.).
Regarding `N#CC(c1cccnc1)N1CCN(C(=O)Cc2cccc3ccccc23)CC1` (stereo not shown) [Compound 2, 1-(1-Naphthylacetyl)-4-(3-pyridylcyanomethyl)piperazine], the ED50 stood at 1.3 mg/kg.
Still for that read-out and setting: to `N#CC(c1cccnc1)N1CCN(C(=O)Cc2ccccc2)CC1` (stereo not shown) [Compound 5, 1-(Phenylacetyl)-4-(3-pyridylcyanomethyl)piperazine] belongs 1.5 mg/kg.
Same read-out and setting: as for `Cl.Cl.Cl.N#CC(c1cccnc1)N1CCN(C(=O)Cc2c[nH]c3ccccc23)CC1` (stereo not shown) [Compound 33, 1-(3-indolylacetyl)-4-(3-pyridylcyanomethyl)piperazine, trihydrochloride], the figure is 3.5 mg/kg.

The assay is the same for the next values; noted with them: Rattus norvegicus, iv; i.v. (femoral vein) 3 min before PAF 0.5 mcg/Kg i.v.; anesthetized male rats; mean arterial pressure; read-out: ID50 (the source's name).
Turning to `Cl.Cl.N#CC(c1cccnc1)N1CCN(C(=O)c2ccc3ccccc3c2)CC1` (stereo not shown) [Compound 1, 1-(2-Naphthoyl)-4-(3-pyridylcyanomethyl)piperazine, dihydrochloride], the ED50 was 5 mg/kg.
On the same count and under the same terms, as for `N#CC(c1cccnc1)N1CCN(C(=O)CCc2ccccc2)CC1` (stereo not shown) [Compound 6, 1-(3-Phenylpropanoyl)-4-(3-pyridylcyanomethyl)piperazine, dichlorhydrate], the figure is 1.2 mg/kg.
The same measure, in the same setting: as for `N#CC(c1cccnc1)N1CCN(C(=O)CCCc2ccccc2)CC1` (stereo not shown) [Compound 7, 1-(4-Phenylbutanoyl)-4-(3-pyridylcyanomethyl)piperazine], the figure is 5 mg/kg; as for `CC(C(=O)N1CCN(C(C#N)c2cccnc2)CC1)(c1ccccc1)c1ccccc1.Cl.Cl` (stereo not shown) [Compound 8, 1-(2,2-Diphenylpropanoyl)-4-(3-pyridylcyanomethyl)piperazine, dihydrochloride], 0.14 mg/kg.
Same read-out and setting: to `Cl.Cl.N#CC(c1cccnc1)N1CCN(C(=O)C(c2ccccc2)c2ccccc2)CC1` (stereo not shown) [Compound 9, 1-(Diphenylacetyl)-4-(3-pyridylcyanomethyl)piperazine, dihydrochloride] belongs 0.11 mg/kg; to `N#CC(c1cccnc1)N1CCN(C(=O)C(Cc2ccccc2)c2ccccc2)CC1` (stereo not shown) [Compound 10, 1-(2,3-Diphenylpropanoyl)-4-(3-pyridylcyanomethyl)piperazine], 0.12 mg/kg; to `N#CC(c1cccnc1)N1CCN(C(=O)C(CCc2ccccc2)c2ccccc2)CC1` (stereo not shown) [Compound 11, 1-(2,4-Diphenylbutanoyl)-4-(3-pyridylcyanomethyl)piperazine], 0.73 mg/kg.
As to `N#CC(c1cccnc1)N1CCN(C(=O)CC(c2ccccc2)c2ccccc2)CC1` (stereo not shown) [Compound 12, 1-(3,3-Diphenylpropanoyl)-4-(3-pyridylcyanomethyl)piperazine], the ED50 is 0.016 mg/kg.
The same measure, in the same setting: as for `N#CC(c1cccnc1)N1CCN(C(=O)C(Cc2ccccc2)Cc2ccccc2)CC1` (stereo not shown) [Compound 13, 1-(2-Phenylmethyl-3-phenylpropanoyl)-4-(3-pyridylcyanomethyl) piperazine, dichlorhydrate], the figure is 0.68 mg/kg.
On the same count and under the same terms, as for `CC(C(=O)N1CCN(C(C#N)c2cccnc2)CC1)c1ccccc1.Cl.Cl` (stereo not shown) [Compound 14, 1-(2-Phenylpropanoyl)-4-(3-pyridylcyanomethyl)piperazine, dihydrochloride], the figure is 0.26 mg/kg.
The same measure, in the same setting: to `N#CC(c1cccnc1)N1CCN(C(=O)C=Cc2ccccc2)CC1` (stereo not shown) [Compound 15, 1-(3-Phenylpropenoyl)-4-(3-pyridylcyanomethyl)piperazine, dichlorhydrate] belongs 0.24 mg/kg.
Consider `N#CC(c1cccnc1)N1CCN(C(=O)C(=Cc2ccccc2)c2ccccc2)CC1` (stereo not shown) [Compound 16, 1-(2,3-Diphenylpropenoyl)-4(3-pyridylcyanomethyl)piperazine], for which the ED50 worked out at 0.17 mg/kg.
The same measure, in the same setting: as for `N#CC(c1cccnc1)N1CCN(C(=O)C=C(c2ccccc2)c2ccccc2)CC1` (stereo not shown) [Compound 17, 1-(3,3-Diphenylpropenoyl)-4-(3-pyridylcyanomethyl)piperazine], the figure is 0.049 mg/kg; as for `CCCCCCCC(=O)N1CCN(C(C#N)c2cccnc2)CC1.Cl` (stereo not shown) [Compound 19, 1-(Octanoyl)-4-(3-pyridylcyanomethyl)piperazine hydrochloride], 1.2 mg/kg.
Turning to `COc1cc(C(=O)N2CCN(C(C#N)c3cccnc3)CC2)cc(OC)c1OC.Cl.Cl` (stereo not shown) [Compound 22, 1-(3,4,5-Trimethoxybenzoyl)-4-(3-pyridylcyanomethyl)piperazine, dihydrochloride], the ED50 was found to be 4.3 mg/kg.
On the same count and under the same terms, as for `COc1ccc(C(CC(=O)N2CCN(C(C#N)c3cccnc3)CC2)c2ccc(OC)cc2)cc1` (stereo not shown) [Compound 25, 1-(3,3-bis(4-methoxyphenyl)propanoyl)-4-(3-pyridylcyanomethyl) piperazine], the figure is 0.19 mg/kg; as for `COc1ccc(C(=CC(=O)N2CCN(C(C#N)c3cccnc3)CC2)c2ccc(OC)cc2)cc1.Cl.Cl` (stereo not shown) [Compound 26, 1-(3,3-bis(4-methoxyphenyl)propenoyl)-4-(3-pyridylcyanomethyl)piperazine, dihydrochloride], 0.17 mg/kg.
On the same count and under the same terms, as for `Cl.Cl.N#CC(c1cccnc1)N1CCN(C(=O)C(O)c2ccccc2)CC1` (stereo not shown) [Compound 27, 1-(2-phenyl-2-hydroxyacetyl)-4-(3-pyridylcyanomethyl)piperazine, dihydrochloride], the figure is 1.1 mg/kg; as for `N#CC(c1cccnc1)N1CCN(C(=O)CC(O)(c2ccccc2)c2ccccc2)CC1` (stereo not shown) [Compound 28, 1-(3,3-Diphenyl-3-hydroxypropanoyl)-4-(3-pyridylcyanomethyl)piperazine], 0.061 mg/kg; as for `N#CC(c1ccncc1)N1CCN(C(=O)CC(O)(c2ccccc2)c2ccccc2)CC1` (stereo not shown) [Compound 29, 1-(3,3-Diphenyl-3-hydroxypropanoyl)-4-(4-pyridylcyanomethyl)piperazine], 0.061 mg/kg.
Same read-out and setting: as for `Cl.Cl.N#CC(c1cccnc1)N1CCN(C(=O)OCC(c2ccccc2)c2ccccc2)CC1` (stereo not shown) [Compound 31, 1-((2,2-diphenylethoxy)carbonyl)-4-(3-pyridylcyanomethyl)piperazine, dihydrochloride], the figure is 0.078 mg/kg; as for `Cl.Cl.Cl.N#CC(c1cccnc1)N1CCN(C(=O)CNc2cccc3ccccc23)CC1` (stereo not shown) [Compound 34, 1-(N-(1-naphthyl)aminoacetyl)-4-(3-pyridylcyanomethyl)piperazine, trihydrochloride], 3 mg/kg.
As to `N#CC(c1cccnc1)N1CCN(C(=O)CN(Cc2ccccc2)c2ccccc2)CC1` (stereo not shown) [Compound 38, 1-(N-benzyl-N-phenylaminoacetyl)-4-(3-pyridylcyanomethyl)piperazine], the ED50 turned out to be 0.42 mg/kg.
The same measure, in the same setting: as for `N#CC(c1cccnc1)N1CCN(C(=O)CN(CCCc2ccccc2)Cc2ccccc2)CC1` (stereo not shown) [Compound 41, 1-(N-benzyl-N-(3-phenylpropyl)aminoacetyl)-4-(3-pyridylcyanomethyl) piperazine, trihydrochloride], the figure is 1.5 mg/kg; as for `N#CC(c1cccnc1)N1CCN(C(=O)CNC(c2ccccc2)c2ccccc2)CC1` (stereo not shown) [Compound 44, 1-(N-(diphenylmethyl)aminoacetyl)-4-(3-pyridylcyanomethyl) piperazine, trihydrochloride], 0.023 mg/kg; as for `CN(CC(=O)N1CCN(C(C#N)c2cccnc2)CC1)C(c1ccccc1)c1ccccc1` (stereo not shown) [Compound 45, 1-(N-diphenylmethyl-N-methylaminoacetyl)-4-(3-pyridylcyanomethyl) piperazine, trihydrochloride], 0.33 mg/kg.
On the same count and under the same terms, to `N#CC(c1cccnc1)N1CCN(C(=O)CNC(c2ccccc2)c2ccc(Cl)cc2)CC1` (stereo not shown) [Compound 46, 1-(N-(1-(4-chlorophenyl)-1-phenylmethyl)aminoacetyl)-4-(3-pyridylcyanomethyl) piperazine, trihydrochloride] belongs 0.13 mg/kg; to `N#CC(c1cccnc1)N1CCN(C(=O)CCNC(c2ccccc2)c2ccccc2)CC1` (stereo not shown) [Compound 47, 1-(3-(N-(diphenylmethyl)amino)propanoyl)-4-(3-pyridylcyanomethyl) piperazine], 0.025 mg/kg; to `N#CC(c1ccncc1)N1CCN(C(=O)CCNC(c2ccccc2)c2ccccc2)CC1` (stereo not shown) [Compound 48, 1-(3-(N-(diphenylmethyl)amino)propanoyl)-4-(4-pyridylcyanomethyl)piperazine], 0.037 mg/kg.
Same read-out and setting: to `Cl.Cl.Cl.N#CC(c1cccnc1)N1CCN(C(=O)CN(Cc2ccccc2)Cc2ccccc2)CC1` (stereo not shown) [Compound 49, 1-(N,N-dibenzylaminoacetyl)-4-(3-pyridylcyanomethyl)piperazine, trihydrochloride] belongs 1.7 mg/kg.
On to `Cl.Cl.Cl.N#CC(c1cccnc1)N1CCN(C(=O)CNC(Cc2ccccc2)c2ccccc2)CC1` (stereo not shown) [Compound 52, 1-(N-(1,2-diphenylethyl)aminoacetyl)-4-(3-pyridylcyanomethyl)piperazine, trihydrochloride], for which the ED50 came out at 0.34 mg/kg.
Still for that read-out and setting: to `N#CC(c1ccncc1)N1CCN(C(=O)CNC(=O)C(c2ccccc2)c2ccccc2)CC1` (stereo not shown) [Compound 57, 1-(N-(diphenylacetyl)aminoacetyl)-4-(4-pyridylcyanomethyl)piperazine] belongs 0.47 mg/kg; to `N#CC(c1cccnc1)N1CCN(CCNC(=O)C(c2ccccc2)c2ccccc2)CC1` (stereo not shown) [Compound 62, 1-(2-(N-(diphenylacetyl)amino)ethyl)-4-(3-pyridylcyanomethyl)piperazine], 0.29 mg/kg; to `Cl.Cl.N#CC(c1ccncc1)N1CCN(C(=O)CC(c2ccccc2)c2ccccc2)CC1` (stereo not shown) [Compound 67, 1-(3,3-diphenylpropanoyl)-4-(4-pyridylcyanomethyl)piperazine, dihydrochloride], 0.034 mg/kg.
